# Reference: ChEMBL document CHEMBL1201862, “PubChem BioAssay data set” (2004)
#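 48-hour exposure; five concentrations; linearly interpolated endpoints. At the GI50, growth is halved.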 Calls of active or inactive are those of the source. Cut-off read from the data, not from the text of the source: active = GI50 up to about 1.1 µM and inactive = higher.
# Legend:
# Assay in all cases: growth of human tumour cells (NCI), 48 h
# 786-0 = test system: 786-0
# A498 = test system: A498
# A549 = test system: A549
# ACHN = test system: ACHN
# BT-549 = test system: BT-549
# CAKI-1 = test system: CAKI-1
# CCRF-CEM = test system: CCRF-CEM
# COLO 205 = test system: COLO 205
# DU-145 = test system: DU-145
# EKVX = test system: EKVX
# HCC 2998 = test system: HCC 2998
# HCT-116 = test system: HCT-116
# HCT-15 = test system: HCT-15
# HL-60 = test system: HL-60
# HOP-62 = test system: HOP-62
# HOP-92 = test system: HOP-92
# HT-29 = test system: HT-29
# Hs-578T = test system: Hs-578T
# IGROV-1 = test system: IGROV-1
# K562 = test system: K562
# KM12 = test system: KM12
# LOX IMVI = test system: LOX IMVI
# M14 = test system: M14
# MCF7 = test system: MCF7
# MDA-MB-231 = test system: MDA-MB-231
# MDA-MB-435 = test system: MDA-MB-435
# MDA-N = test system: MDA-N
# MOLT-4 = test system: MOLT-4
# Malme-3M = test system: Malme-3M
# NCI-H226 = test system: NCI-H226
# NCI-H23 = test system: NCI-H23
# NCI-H460 = test system: NCI-H460
# NCI-H522 = test system: NCI-H522
# NCI/ADR-RES = test system: NCI/ADR-RES
# OVCAR-3 = test system: OVCAR-3
# OVCAR-4 = test system: OVCAR-4
# OVCAR-5 = test system: OVCAR-5
# OVCAR-8 = test system: OVCAR-8
# PC-3 = test system: PC-3
# RPMI-8226 = test system: RPMI-8226
# RXF 393 = test system: RXF 393
# SF-268 = test system: SF-268
# SF-295 = test system: SF-295
# SF-539 = test system: SF-539
# SK-MEL-28 = test system: SK-MEL-28
# SK-MEL-2 = test system: SK-MEL-2
# SK-MEL-5 = test system: SK-MEL-5
# SK-OV-3 = test system: SK-OV-3
# SN12C = test system: SN12C
# SNB-19 = test system: SNB-19
# SNB-75 = test system: SNB-75
# SR = test system: SR
# SW-620 = test system: SW-620
# T47D = test system: T47D
# TK-10 = test system: TK-10
# U-251 = test system: U-251
# UACC-257 = test system: UACC-257
# UACC-62 = test system: UACC-62
# UO-31 = test system: UO-31
smiles,measurement,setting,value
CCCCOCCOC1=C(Cl)C(=O)c2c(O)ccc(O)c2C1=O,GI50,786-0,0.229 µM (active)
same,GI50,A498,1.82 µM (inactive)
same,GI50,A549,2.11 µM (inactive)
same,GI50,ACHN,0.321 µM (active)
same,GI50,BT-549,0.175 µM (active)
same,GI50,CAKI-1,0.407 µM (active)
same,GI50,CCRF-CEM,0.0274 µM (active)
same,GI50,COLO 205,0.194 µM (active)
same,GI50,DU-145,1.66 µM (inactive)
same,GI50,EKVX,2.94 µM (inactive)
same,GI50,HCC 2998,2.5 µM (inactive)
same,GI50,HCT-116,0.261 µM (active)
same,GI50,HCT-15,0.151 µM
same,GI50,HL-60,0.0347 µM (active)
same,GI50,HOP-62,1.17 µM (inactive)
same,GI50,HOP-92,0.288 µM (active)
same,GI50,HT-29,0.689 µM (active)
same,GI50,Hs-578T,2.49 µM (inactive)
same,GI50,IGROV-1,0.855 µM (active)
same,GI50,K562,0.0356 µM (active)
same,GI50,KM12,1.83 µM (inactive)
same,GI50,LOX IMVI,0.439 µM (active)
same,GI50,M14,0.217 µM (active)
same,GI50,MCF7,0.285 µM (active)
same,GI50,MDA-MB-231,0.493 µM (active)
same,GI50,MDA-MB-435,0.325 µM (active)
same,GI50,MDA-N,0.272 µM (active)
same,GI50,MOLT-4,0.051 µM (active)
same,GI50,Malme-3M,0.259 µM (active)
same,GI50,NCI-H226,2.26 µM (inactive)
same,GI50,NCI-H23,0.42 µM (active)
same,GI50,NCI-H460,1.49 µM (inactive)
same,GI50,NCI-H522,0.392 µM (active)
same,GI50,NCI/ADR-RES,0.614 µM (active)
same,GI50,OVCAR-3,0.547 µM (active)
same,GI50,OVCAR-4,0.822 µM (active)
same,GI50,OVCAR-5,1.37 µM (inactive)
same,GI50,OVCAR-8,0.347 µM (active)
same,GI50,PC-3,1.6 µM (inactive)
same,GI50,RPMI-8226,0.255 µM (active)
same,GI50,RXF 393,0.227 µM (active)
same,GI50,SF-268,1.6 µM (inactive)
same,GI50,SF-295,1.53 µM (inactive)
same,GI50,SF-539,0.993 µM (active)
same,GI50,SK-MEL-28,0.562 µM (active)
same,GI50,SK-MEL-2,1.37 µM (inactive)
same,GI50,SK-MEL-5,0.733 µM (active)
same,GI50,SK-OV-3,2.98 µM (inactive)
same,GI50,SN12C,0.465 µM (active)
same,GI50,SNB-19,1.36 µM (inactive)
same,GI50,SNB-75,0.687 µM (active)
same,GI50,SR,0.0995 µM (active)
same,GI50,SW-620,0.188 µM (active)
same,GI50,T47D,0.532 µM (active)
same,GI50,TK-10,0.578 µM (active)
same,GI50,U-251,1.32 µM (inactive)
same,GI50,UACC-257,0.429 µM (active)
same,GI50,UACC-62,1.12 µM (active)
same,GI50,UO-31,0.748 µM (active)
O=S1(=O)c2ccccc2C(Nc2ccccc2)N1c1ccccc1 (stereo not drawn),GI50,786-0,> 100 µM (inactive)
same,GI50,A498,> 100 µM (inactive)
same,GI50,A549,56.8 µM (inactive)
same,GI50,ACHN,> 100 µM (inactive)
same,GI50,BT-549,58.9 µM (inactive)
same,GI50,CAKI-1,> 100 µM (inactive)
same,GI50,CCRF-CEM,63.4 µM (inactive)
same,GI50,DU-145,> 100 µM (inactive)
same,GI50,EKVX,> 100 µM (inactive)
same,GI50,HCC 2998,> 100 µM (inactive)
same,GI50,HCT-116,> 100 µM (inactive)
same,GI50,HCT-15,48 µM
same,GI50,HL-60,85.7 µM (inactive)
same,GI50,HOP-62,> 100 µM (inactive)
same,GI50,HOP-92,38.5 µM (inactive)
same,GI50,HT-29,> 100 µM (inactive)
same,GI50,Hs-578T,> 100 µM (inactive)
same,GI50,IGROV-1,36.9 µM (inactive)
same,GI50,K562,27.6 µM (inactive)
same,GI50,KM12,72.3 µM (inactive)
same,GI50,LOX IMVI,> 100 µM (inactive)
same,GI50,MCF7,> 100 µM (inactive)
same,GI50,MDA-MB-231,> 100 µM (inactive)
same,GI50,MDA-MB-435,45.1 µM (inactive)
same,GI50,MDA-N,> 100 µM (inactive)
same,GI50,MOLT-4,50.4 µM (inactive)
same,GI50,Malme-3M,> 100 µM (inactive)
same,GI50,NCI-H226,> 100 µM (inactive)
same,GI50,NCI-H23,> 100 µM (inactive)
same,GI50,NCI-H460,72.9 µM (inactive)
same,GI50,NCI-H522,24.7 µM (inactive)
same,GI50,NCI/ADR-RES,45 µM (inactive)
same,GI50,OVCAR-3,> 100 µM (inactive)
same,GI50,OVCAR-4,67.6 µM (inactive)
same,GI50,OVCAR-5,> 100 µM (inactive)
same,GI50,OVCAR-8,> 100 µM (inactive)
same,GI50,PC-3,> 100 µM (inactive)
same,GI50,RPMI-8226,> 100 µM (inactive)
same,GI50,RXF 393,> 100 µM (inactive)
same,GI50,SF-268,> 100 µM (inactive)
same,GI50,SF-295,> 100 µM (inactive)
same,GI50,SF-539,> 100 µM (inactive)
same,GI50,SK-MEL-28,> 100 µM (inactive)
same,GI50,SK-MEL-2,98.6 µM (inactive)
same,GI50,SK-MEL-5,> 100 µM (inactive)
same,GI50,SK-OV-3,> 100 µM (inactive)
same,GI50,SN12C,> 100 µM (inactive)
same,GI50,SNB-75,> 100 µM (inactive)
same,GI50,SR,83.8 µM (inactive)
same,GI50,SW-620,> 100 µM (inactive)
same,GI50,T47D,24.5 µM (inactive)
same,GI50,TK-10,> 100 µM (inactive)
same,GI50,U-251,61 µM (inactive)
same,GI50,UACC-257,> 100 µM (inactive)
same,GI50,UACC-62,> 100 µM (inactive)
same,GI50,UO-31,68.1 µM (inactive)
NCC(=O)Nc1ccc(S(=O)(=O)O)c2cc(S(=O)(=O)O)cc(S(=O)(=O)O)c12,GI50,786-0,> 100 µM (inactive)
same,GI50,A498,> 100 µM (inactive)
same,GI50,A549,> 100 µM (inactive)
same,GI50,ACHN,> 100 µM (inactive)
same,GI50,BT-549,> 100 µM (inactive)
same,GI50,CAKI-1,> 100 µM (inactive)
same,GI50,CCRF-CEM,> 100 µM (inactive)
same,GI50,COLO 205,> 100 µM (inactive)
same,GI50,DU-145,> 100 µM (inactive)
same,GI50,EKVX,> 100 µM (inactive)
same,GI50,HCC 2998,> 100 µM (inactive)
same,GI50,HCT-116,> 100 µM (inactive)
same,GI50,HCT-15,> 100 µM
same,GI50,HL-60,> 100 µM (inactive)
same,GI50,HOP-62,> 100 µM (inactive)
same,GI50,HOP-92,> 100 µM (inactive)
same,GI50,HT-29,> 100 µM (inactive)
same,GI50,Hs-578T,> 100 µM (inactive)
same,GI50,IGROV-1,> 100 µM (inactive)
same,GI50,K562,> 100 µM (inactive)
same,GI50,KM12,> 100 µM (inactive)
same,GI50,LOX IMVI,> 100 µM (inactive)
same,GI50,M14,> 100 µM (inactive)
same,GI50,MCF7,> 100 µM (inactive)
same,GI50,MDA-MB-231,> 100 µM (inactive)
same,GI50,MDA-MB-435,> 100 µM (inactive)
same,GI50,MDA-N,> 100 µM (inactive)
same,GI50,MOLT-4,> 100 µM (inactive)
same,GI50,Malme-3M,> 100 µM (inactive)
same,GI50,NCI-H226,> 100 µM (inactive)
same,GI50,NCI-H23,> 100 µM (inactive)
same,GI50,NCI-H522,> 100 µM (inactive)
same,GI50,NCI/ADR-RES,> 100 µM (inactive)
same,GI50,OVCAR-3,> 100 µM (inactive)
same,GI50,OVCAR-4,> 100 µM (inactive)
same,GI50,OVCAR-5,> 100 µM (inactive)
same,GI50,OVCAR-8,> 100 µM (inactive)
same,GI50,PC-3,> 100 µM (inactive)
same,GI50,RPMI-8226,> 100 µM (inactive)
same,GI50,RXF 393,> 100 µM (inactive)
same,GI50,SF-268,> 100 µM (inactive)
same,GI50,SF-295,> 100 µM (inactive)
same,GI50,SF-539,> 100 µM (inactive)
same,GI50,SK-MEL-28,> 100 µM (inactive)
same,GI50,SK-MEL-2,> 100 µM (inactive)
same,GI50,SK-MEL-5,> 100 µM (inactive)
same,GI50,SK-OV-3,> 100 µM (inactive)
same,GI50,SN12C,> 100 µM (inactive)
same,GI50,SNB-19,> 100 µM (inactive)
same,GI50,SNB-75,> 100 µM (inactive)
same,GI50,SR,> 100 µM (inactive)
same,GI50,SW-620,> 100 µM (inactive)
same,GI50,T47D,> 100 µM (inactive)
same,GI50,TK-10,> 100 µM (inactive)
same,GI50,U-251,> 100 µM (inactive)
same,GI50,UACC-257,> 100 µM (inactive)
same,GI50,UACC-62,> 100 µM (inactive)
same,GI50,UO-31,> 100 µM (inactive)
